Where two headings read alike, the source gives them in different places.
Assays:
[1] = tested on: HeLa; experiment: PI staining for cell cycle distribution, HeLa; assay type: cell-based, human; set-up: key: 0: no effect; 1: weak effect; 2: strong effect; conditions: HeLa 10 μM, 24 h
Protocol: (§1) Cell lines are cultured in RPMI-1640 tissue culture medium containing either 5% or 10% fetal calf serum, 0.05 mM 2-mercaptoethanol, 2 mM glutamine and penicillin/streptomycin 50 μg/ml (complete medium) (Sigma, Buchs, Switzerland). General growth conditions are 37° C. and 7.5% CO2.
(§2) The following human cell lines (either EGFP transfected or not) are being used: HeLa (ATCC: CCL-2), KB (ATCC: CCL-17), MCF7 (ATCC: HTB-22), SK-BR-3 (ATCC: HTB-30), SK-Mel 1 (ATCC: HTB-67), SK-Mel 28 (ATCC: HTB-72), PC-3 (ATCC: CRL-1435), SW 480 (ATCC: CCL-228), NCl-H460 (ATCC: HTB-177), NCl-H1792 (ATCC: CRL-5895), HT1080 (ATCC: CCL-21), Jurkat (ATCC: TIB-152), Ramos (ATCC: CRL-1596), Raji (ATCC: CCL-86), H9 (ATCC: HTB-176), Hut78 (ATCC: TIB-161), K562 (ATCC: CCL 243), HL-60 (ATCC: CCL 240), U-87MG (ATCC: HTB-14), HepG2 (ATCC: HB-8065), U-2 OS (ATCC: HTB-96), Saos-2 (ATCC: HTB-85), U937 (ATCC: CRL 1593), Hs 578T (ATCC: HTB 126), HBL-100 (ATCC: HTB 124), Molt-4 (ATCC: CRL 1582).
(§3) 1-2*10^5 cells are seeded into 24 well tissue culture plates and incubated for 24 h prior to compound addition. Compounds are added for 24 h in a final concentration of 3 μM or 10 μM. Adherent cells are harvested by trypsinization. The cell suspensions are fixed by adding 2 parts ice cold ethanol 100% while vortexing. Then the samples are stored for >2 h at −20° C. Subsequently the cells are washed with PBS once and resuspended in 250 μl PBS containing 50 μg/ml PI (Calbiochem # 537059), then the samples are incubated at 37° C. for 30 minutes and subsequently analyzed on a FACSCalibur™ monitoring linear PI fluorescence activity on FL2. The readout allows the detection of a possible direct or indirect influence of the tested compounds on the cell cycle. The following events can occur: a) Generation of a subG1 peak indicative for DNA fragmentation, b) increase of the cell population arrested in G2M phase. Both events are scored by 1 for weak and 2 for strong occurrence. 0 indicates no occurrence at all.

[2] = tested on: Jurkat; experiment: PI staining for cell cycle distribution, Jurkat; assay type: cell-based, human; set-up: key: 0: no effect; 1: weak effect; 2: strong effect; conditions: Jurkat 3 μM, 24 h
Protocol: as §1, §2, §3

[3] = tested on: MRC5; experiment: MTS proliferation assay, MRC5; assay type: cell-based; conditions: MRC5, 72 h incubation, read-out: MTS proliferation assay IC 50 MRC5
Procedure, shortened: (§4)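 Antiproliferative read-out by MTS (3 h, A492) after 72 h compound exposure at final 0.3–10 μM (four concentrations). Cells were plated 24 h earlier in RPMI-1640 containing 5% or 10% FCS, cultured at 37 °C with 7.5% CO2.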

[4] = tested on: HeLa; experiment: MTS proliferation assay, HeLa; assay type: cell-based, human; conditions: 72 h incubation, read-out: MTS proliferation assay IC 50 HeLa
Procedure, shortened: (§5)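 Absorbance at 492 nm after 3 h with MTS reagent gave proliferation. This followed 72 h compound exposure (final 0.3, 1, 3, 10 μM) at 37 °C and 7.5% CO2. Cells had been plated 24 h earlier in complete RPMI-1640 with 5% or 10% FCS.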

[5] = tested on: Jily; experiment: MTS proliferation assay, Jily; assay type: cell-based; conditions: 72 h incubation, read-out: MTS proliferation assay IC 50 Jily
Procedure, shortened: as §4

[6] = tested on: adherent cells or suspension cells; experiment: Hoechst 33342 nuclear staining (fraction of apoptotic nuclei); assay type: cell-based; set-up: key: 0 relating to no activity; 1 relating to weak activity comprising less than 70% of the cells; score 2 relating to strong activity comprising more than 70% of the cells
[7] = tested on: Jurkat; experiment: MTS proliferation assay, Jurkat; assay type: cell-based, human; conditions: 72 h incubation, read-out: MTS proliferation assay IC 50 Jurkat
Procedure, shortened: as §5

[8] = tested on: HT1080; experiment: MTS proliferation assay, HT1080; assay type: cell-based, human; conditions: HT1080, 72 h incubation, read-out: MTS proliferation assay IC 50 HT1080
Procedure, shortened: as §5

[9] = cell population arrested in G2M phase
[10] = subG1 peak indicative for DNA fragmentation

SMILES	IC50 [5]	Hoechst 33342 nuclear staining score ([6]; H460, conc 0.01 μm)	Hoechst 33342 nuclear staining score ([6]; H460, conc 0.1 μm)	Hoechst 33342 nuclear staining score ([6]; H460, conc 1 μm)	Hoechst 33342 nuclear staining score ([6]; HeLa, conc 0.01 μm)	Hoechst 33342 nuclear staining score ([6]; HeLa, conc 0.1 μm)	Hoechst 33342 nuclear staining score ([6]; HeLa, conc 1 μm)	Hoechst 33342 nuclear staining score ([6]; Jily, conc 0.01 μm)	Hoechst 33342 nuclear staining score ([6]; Jily, conc 0.1 μm)	Hoechst 33342 nuclear staining score ([6]; Jily, conc 1 μm)	Hoechst 33342 nuclear staining score ([6]; Jurkat, conc 0.01 μm)	Hoechst 33342 nuclear staining score ([6]; Jurkat, conc 0.1 μm)	Hoechst 33342 nuclear staining score ([6]; Jurkat, conc 1 μm)	Hoechst 33342 nuclear staining score ([6]; MRC5, conc 0.01 μm)	Hoechst 33342 nuclear staining score ([6]; MRC5, conc 0.1 μm)	Hoechst 33342 nuclear staining score ([6]; MRC5, conc 1 μm)	Hoechst 33342 nuclear staining score ([6]; PBLs, conc 0.01 μm)	Hoechst 33342 nuclear staining score ([6]; PBLs, conc 0.1 μm)	Hoechst 33342 nuclear staining score ([6]; PBLs, conc 1 μm)	other results
Nc1nonc1-c1nc2ccccc2n1CC(=O)c1ccc(Cl)cc1 [Example 16]	10 to 100 nM	0	2 (score 2 relating to strong activity comprising more than 70% of the cells)	2 (score 2 relating to strong activity comprising more than 70% of the cells)	0	2 (score 2 relating to strong activity comprising more than 70% of the cells)	2 (score 2 relating to strong activity comprising more than 70% of the cells)	0	2 (score 2 relating to strong activity comprising more than 70% of the cells)	2 (score 2 relating to strong activity comprising more than 70% of the cells)	0	2 (score 2 relating to strong activity comprising more than 70% of the cells)	2 (score 2 relating to strong activity comprising more than 70% of the cells)	0	2 (score 2 relating to strong activity comprising more than 70% of the cells)	2 (score 2 relating to strong activity comprising more than 70% of the cells)	0	0	0	PI staining for cell cycle distribution, G2M [1, 9]: 2; PI staining for cell cycle distribution, subG1 [1, 10]: 0; PI staining for cell cycle distribution, G2M [2, 9]: 0; PI staining for cell cycle distribution, subG1 [2, 10]: 0; IC50 [3]: 10 to 100 nM; IC50 [4]: 100 to 1000 nM; IC50 [7]: 100 to 1000 nM; IC50 [8]: 10 to 100 nM
Nc1nonc1-c1nc2ccccc2n1CC(=O)c1ccc(Cl)c([N+](=O)[O-])c1 [Example 66, 4-[1-(4-Chloro-3-nitrophenacyl)-1H-benzimidazol-2-yl]-furazan-3-ylamine]	100 to 1000 nM	0	0	2 (score 2 relating to strong activity comprising more than 70% of the cells)	0	0	2 (score 2 relating to strong activity comprising more than 70% of the cells)	0	0	2 (score 2 relating to strong activity comprising more than 70% of the cells)	0	1 (1 relating to weak activity comprising less than 70% of the cells)	2 (score 2 relating to strong activity comprising more than 70% of the cells)	0	0	1 (1 relating to weak activity comprising less than 70% of the cells)	0	0	0	IC50 ([3]; Homo sapiens): 100 to 1000 nM; melting point: 198 to 200 °C; IC50 ([4]; Homo sapiens): 100 to 1000 nM; IC50 ([7]; Homo sapiens): 10 to 100 nM; IC50 ([8]; Homo sapiens, HT-1080): 100 to 1000 nM

Reference: USRE42890E1, “Furazanobenzimidazoles” (Basilea Pharmaceutica AG, priority 2003, dated 2011)
